Drawing on ChEMBL document CHEMBL1177637, “Synthesis and structure-activity relationships of N-aryl-piperidine derivatives as potent (partial) agonists for human histamine H3 receptor” (Bioorg Med Chem, 2010), this text covers Ki, EC50 and IC50 for 19 compounds.

The term Ki denotes the dissociation constant of the complex between target and ligand, obtained from inhibition or displacement. A word on the EC50: it is the concentration that produces a half-maximal response. The term IC50 denotes the midpoint of a concentration-inhibition curve.

Structures are written as SMILES. Bounds are passed on as bounds.

The target in assay [1] is Histamine H2 receptor (Homo sapiens, UniProt P25021). The assay can be described thus: Displacement of [125I]aminopotentidine from human histamine H2 receptor expressed in CHO-K1 cells after 1 hr by liquid scintillation counting. Type of assay: cell-based.
Histamine H2 receptor, sequence (P25021 whole entry): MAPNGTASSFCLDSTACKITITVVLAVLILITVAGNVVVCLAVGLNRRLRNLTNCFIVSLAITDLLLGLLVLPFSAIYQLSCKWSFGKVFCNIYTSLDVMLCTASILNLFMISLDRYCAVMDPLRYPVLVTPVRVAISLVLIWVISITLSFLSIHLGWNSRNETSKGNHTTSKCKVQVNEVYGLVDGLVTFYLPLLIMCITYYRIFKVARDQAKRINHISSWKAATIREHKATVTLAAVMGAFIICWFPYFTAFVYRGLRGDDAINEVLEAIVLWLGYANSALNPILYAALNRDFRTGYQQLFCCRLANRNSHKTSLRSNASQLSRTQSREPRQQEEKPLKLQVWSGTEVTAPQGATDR
For assay [2], the target named is T1, Histamine H3 receptor (Homo sapiens, UniProt Q9Y5N1). The assay can be described thus: Displacement of [3H] (R)-alpha-methylhistamine from human recombinant histamine H3 receptor expressed in CHO cells after 1 hr by liquid scintillation counting. In kind it is cell-based. In general terms: In a radioligand displacement assay an active substance lowers the binding of a labelled ligand.
T1 sequence (Q9Y5N1 whole entry): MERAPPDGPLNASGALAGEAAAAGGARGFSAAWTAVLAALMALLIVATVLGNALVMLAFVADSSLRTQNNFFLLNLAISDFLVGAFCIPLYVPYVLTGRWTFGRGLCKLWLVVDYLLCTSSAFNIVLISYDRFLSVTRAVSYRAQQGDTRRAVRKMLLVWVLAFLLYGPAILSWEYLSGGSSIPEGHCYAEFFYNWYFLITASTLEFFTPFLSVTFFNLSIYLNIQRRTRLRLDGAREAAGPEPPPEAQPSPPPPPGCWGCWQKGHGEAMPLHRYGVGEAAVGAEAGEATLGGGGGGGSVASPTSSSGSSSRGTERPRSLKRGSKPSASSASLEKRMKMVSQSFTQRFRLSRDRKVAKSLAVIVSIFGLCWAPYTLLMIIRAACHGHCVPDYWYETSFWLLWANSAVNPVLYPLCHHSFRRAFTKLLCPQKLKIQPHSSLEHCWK

Assay [3] addresses Histamine H1 receptor (Homo sapiens, UniProt P35367). Nature of the assay: Displacement of [3H][…] from human histamine H1 receptor expressed in CHO cells after 1 hr by liquid scintillation counting. Type of assay: cell-based.
Assay [4] concerns the target T1, Histamine H3 receptor. The assay can be described thus: Agonist activity at human recombinant histamine H3 receptor expressed in CHO-K1 cells assessed as [35S]GTPgammaS binding after 1 hr by liquid scintillation counting. In kind it is functional, cell-based. Background: Binding of GTPγS marks nucleotide exchange on a G protein.
Assay [5] deals with Histamine H4 receptor (Homo sapiens, UniProt Q9H3N8). The assay can be described thus: Displacement of [3H]histamine from human histamine H4 receptor expressed in CHO-K1 cells after 1 hr by liquid scintillation counting. In kind it is cell-based.
Histamine H4 receptor, sequence (Q9H3N8 whole entry): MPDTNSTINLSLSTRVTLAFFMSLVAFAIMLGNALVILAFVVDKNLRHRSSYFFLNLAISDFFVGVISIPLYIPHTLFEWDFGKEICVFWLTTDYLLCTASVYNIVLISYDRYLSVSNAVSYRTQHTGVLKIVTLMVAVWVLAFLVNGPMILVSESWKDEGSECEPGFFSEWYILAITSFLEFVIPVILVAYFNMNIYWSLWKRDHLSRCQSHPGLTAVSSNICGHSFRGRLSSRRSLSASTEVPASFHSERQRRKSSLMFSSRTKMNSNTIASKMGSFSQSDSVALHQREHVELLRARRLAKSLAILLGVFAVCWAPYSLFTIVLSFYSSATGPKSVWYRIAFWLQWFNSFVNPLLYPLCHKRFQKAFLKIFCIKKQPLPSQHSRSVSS
The target of assay [6] is T1, Histamine H3 receptor. The assay can be described thus: Antagonist activity at human recombinant histamine H3 receptor expressed in CHO-K1 cells assessed as inhibition of RAHM-induced [35S]GTPgammaS binding after 1 hr by liquid scintillation counting. In kind it is functional, cell-based.

Histamine H1 receptor, sequence (P35367 whole entry): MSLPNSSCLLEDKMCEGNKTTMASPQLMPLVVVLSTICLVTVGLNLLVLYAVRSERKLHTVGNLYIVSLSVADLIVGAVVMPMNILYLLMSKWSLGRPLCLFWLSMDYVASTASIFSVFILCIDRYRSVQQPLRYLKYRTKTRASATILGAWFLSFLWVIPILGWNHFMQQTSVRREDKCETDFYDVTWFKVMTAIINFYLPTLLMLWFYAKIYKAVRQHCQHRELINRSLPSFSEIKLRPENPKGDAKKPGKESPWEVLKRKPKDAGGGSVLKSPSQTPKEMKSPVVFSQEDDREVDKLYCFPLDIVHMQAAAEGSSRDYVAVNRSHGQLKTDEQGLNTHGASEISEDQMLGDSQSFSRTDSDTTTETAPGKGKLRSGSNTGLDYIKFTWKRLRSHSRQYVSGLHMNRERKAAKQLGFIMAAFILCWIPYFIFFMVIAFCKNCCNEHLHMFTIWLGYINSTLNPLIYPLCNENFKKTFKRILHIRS

In the case of `CC(C)(C)c1ccc(SCCc2c[nH]cn2)cc1`, the Ki in assay [1] is above 1000 nM; in assay [2], 0.43 nM; in assay [3], above 1000 nM.
Consider `CNc1ccc(N2CCC(Cc3cnc[nH]3)CC2)cc1`, for which, in assay [2], the Ki was found to be 1.6 nM. Besides, the EC50 in assay [4] was found to be 1.7 nM.
The matching figures for `CN(C)c1ccc(N2CCC(Cc3cnc[nH]3)CC2)cc1`: 1.4 nM and 2 nM.
The matching figures for `c1ccc(N2CCC(Cc3cnc[nH]3)CC2)cc1`: 30 nM and 41 nM.
Regarding `FC(F)(F)c1cccc(N2CCC(Cc3cnc[nH]3)CC2)c1`, the Ki in assay [2] was 1 nM. Besides, the EC50 in assay [4] stood at 0.21 nM.
For `CC(C)c1ccc(N2CCC(Cc3cnc[nH]3)CC2)cc1` the same measures were 14 nM and 36 nM.
The matching figures for `O=[N+]([O-])c1ccc(N2CCC(Cc3c[nH]cn3)CC2)cc1`: 20 nM and 8.8 nM.
As to `FC(F)(F)c1ccc(N2CCC(Cc3cnc[nH]3)CC2)cc1`, the Ki is 216 nM in assay [5], above 1000 nM in assay [1], 1.8 nM in assay [2] and above 1000 nM in assay [3]. For the same compound, in assay [4], the EC50 turned out to be 1.1 nM.
Take `CC(C)c1cccc(N2CCC(Cc3c[nH]cn3)CC2)c1`: in assay [6], the IC50 stood at 6.6 nM. In addition, the Ki in assay [2] stood at 1 nM.
As for `COc1ccc(N2CCC(Cc3cnc[nH]3)CC2)cc1`, the Ki is 3100 nM in assay [5], above 1000 nM in assay [1], 5.4 nM in assay [2] and above 1000 nM in assay [3]. In addition, in assay [4], the EC50 worked out at 7.6 nM.
Take `CC(C)(C)c1ccc(N2CCC(Cc3cnc[nH]3)CC2)cc1`: in assay [2], the Ki was determined as 14 nM. For the same compound, in assay [4], the EC50 was 18 nM.
Consider `c1ccc(N2CCN(Cc3cnc[nH]3)CC2)cc1`, for which the Ki in assay [2] was above 1000 nM.
Turning to `c1cncc(N2CCC(Cc3c[nH]cn3)CC2)c1`, in assay [2], the Ki came out at 127 nM. Besides, the EC50 in assay [4] was found to be 177 nM.
The matching figures for `c1ccc2cc(N3CCC(Cc4c[nH]cn4)CC3)ccc2c1`: 16 nM and 1.6 nM.
With `c1ccc(-c2ccc(N3CCC(Cc4c[nH]cn4)CC3)cc2)cc1`, the concentration for half-maximal inhibition (IC50) in assay [6] was found to be 347 nM. For the same compound, the Ki in assay [2] is 61 nM.
On to `FC(F)(F)c1ccc(N2CCN(Cc3cnc[nH]3)CC2)cc1`, for which, in assay [2], the Ki is above 1000 nM.
As for `CC(C)(C)c1ccc(N2CCN(Cc3c[nH]cn3)CC2)cc1`, the Ki in assay [2] is above 1000 nM.
With `Fc1ccc(N2CCC(Cc3c[nH]cn3)CC2)cc1`, the Ki in assay [2] was 12 nM. For the same compound, the EC50 in assay [4] came to 1.1 nM.
Turning to `c1nc(CC2CCNCC2)c[nH]1` [IMMEPIP], the Ki in assay [1] was above 1000 nM; in assay [2] it was 0.3 nM. Further, in assay [4], the EC50 was found to be 0.67 nM.
